Measured values as given in patent US8212016B2, “NPC1L1 orthologues” (Schering Corporation, priority 2006, dated 2012).
Where two headings read alike, the source gives them in different places.

How the values were obtained:
monkey NPC1L1 [1] = biological target: T1, monkey NPC1L1 (Macaca mulatta, UniProt A0MJA5); test: Fluorescence NPC1L1 binding assay, HEK-293 cells, BODIPY-labeled compound 1; parameters: species or system rhesus monkey
Procedure: (§1) Cell Culture and Membrane Preparation. Each plasmid pCR3.1 harboring NPC1L1 was prepared using standard molecular biology protocols. Stable cell lines expressing human, rhesus monkey, mouse, rat, hamster, canine or rabbit NPC1L1 were generated using Lipofectamine 2000 transfection reagent in HEK-293 cells according to the manufacturer's protocol. Cells were maintained in DMEM supplemented with 10% FBS, 100 U/ml pen/strep, and 500 μg/ml geneticin at 37° C., 5% CO2. All cell culture reagents were obtained from Invitrogen Life Technologies, (Carlsbad, Calif.). Cell membranes were prepared by lysing cells in 5 mM HEPES with protease inhibitors (Complete™ Protease Inhibitor Cocktail Tablets; Roche Diagnostics Corp., Indianapolis Ind.) for 15 min at 4° C. A membrane pellet was obtained by centrifuging the cell lysates at 12,000×g for 25 min. The membranes were resuspended in 5 mM HEPES with protease inhibitors and triturated with a 21G needle.
(§2) Fluorescence. Cells were plated into 384-well black/clear plates (BD Biosciences, Bedford Mass.) for binding experiments the following day. The media was aspirated. […] Media (20 μl) containing the indicated concentration of compound was then added to the wells. […] The binding reaction was allowed to proceed for 4 hours at 37° C. Subsequently the media was aspirated and the cells washed once with PBS.

human NPC1L1 = biological target: T2, human NPC1L1 (Homo sapiens, UniProt Q9UHC9, T1073A); test: as above; conditions: Human NPC1L1, competition with compound 1; read-out: Ki
T2 construct: expressed in transfected cells
T2 sequence (Q9UHC9 22-1332 isoform Q9UHC9-2 T1046A): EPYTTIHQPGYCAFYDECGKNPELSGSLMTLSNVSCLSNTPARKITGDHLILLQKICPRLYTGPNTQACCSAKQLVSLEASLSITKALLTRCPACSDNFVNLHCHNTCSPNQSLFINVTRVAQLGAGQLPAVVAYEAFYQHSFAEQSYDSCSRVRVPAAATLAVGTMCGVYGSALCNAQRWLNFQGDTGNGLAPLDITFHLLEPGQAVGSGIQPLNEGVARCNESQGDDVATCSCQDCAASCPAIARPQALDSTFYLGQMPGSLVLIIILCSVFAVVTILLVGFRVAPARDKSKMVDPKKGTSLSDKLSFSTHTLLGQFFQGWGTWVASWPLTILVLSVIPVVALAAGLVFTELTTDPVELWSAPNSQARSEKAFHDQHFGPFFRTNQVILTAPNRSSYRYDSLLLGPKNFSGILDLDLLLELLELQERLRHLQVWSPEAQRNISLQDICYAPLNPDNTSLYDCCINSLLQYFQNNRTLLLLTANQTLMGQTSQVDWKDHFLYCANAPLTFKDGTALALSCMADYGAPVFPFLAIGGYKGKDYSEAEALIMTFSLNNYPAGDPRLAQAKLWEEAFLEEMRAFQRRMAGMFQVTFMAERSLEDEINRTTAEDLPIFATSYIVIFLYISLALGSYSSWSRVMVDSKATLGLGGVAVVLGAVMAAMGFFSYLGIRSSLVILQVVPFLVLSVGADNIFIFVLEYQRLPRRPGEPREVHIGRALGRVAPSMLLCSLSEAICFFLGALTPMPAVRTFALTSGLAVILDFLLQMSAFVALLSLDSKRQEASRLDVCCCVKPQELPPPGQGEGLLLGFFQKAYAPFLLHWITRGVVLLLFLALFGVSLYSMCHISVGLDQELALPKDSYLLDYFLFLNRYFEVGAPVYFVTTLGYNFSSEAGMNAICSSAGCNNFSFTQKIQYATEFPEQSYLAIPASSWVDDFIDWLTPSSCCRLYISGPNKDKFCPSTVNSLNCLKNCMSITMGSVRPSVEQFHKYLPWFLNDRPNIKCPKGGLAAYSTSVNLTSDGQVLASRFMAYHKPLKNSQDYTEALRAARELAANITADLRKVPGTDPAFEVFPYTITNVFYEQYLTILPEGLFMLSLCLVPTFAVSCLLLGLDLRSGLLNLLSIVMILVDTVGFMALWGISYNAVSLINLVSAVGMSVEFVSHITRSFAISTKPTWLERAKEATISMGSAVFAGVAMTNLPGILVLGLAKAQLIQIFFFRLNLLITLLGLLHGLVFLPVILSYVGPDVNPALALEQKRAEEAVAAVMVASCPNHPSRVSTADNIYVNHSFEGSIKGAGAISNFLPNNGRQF
Procedure: as §1, §2

rabbit NPC1L1 = rabbit NPC1L1 (Oryctolagus cuniculus, UniProt A0MJA7); test: as above
Procedure: as §1, §2

monkey NPC1L1 [2] = biological target: T1, monkey NPC1L1; test: Radioligand binding of [3H]-glucuronidated ezetimibe (compound 4) to cell membranes; parameters: species or system rhesus monkey
Procedure: Cell Culture and Membrane Preparation. […] Cells were maintained in DMEM supplemented with 10% FBS, 100 U/ml pen/strep, and 500 μg/ml geneticin at 37° C., 5% CO2. All cell culture reagents were obtained from Invitrogen Life Technologies, (Carlsbad, Calif.). Cell membranes were prepared by lysing cells in 5 mM HEPES with protease inhibitors (Complete™ Protease Inhibitor Cocktail Tablets; Roche Diagnostics Corp., Indianapolis Ind.) for 15 min at 4° C. A membrane pellet was obtained by centrifuging the cell lysates at 12,000×g for 25 min. […] Radioligand. […] Natl. Acad. Sci. […] Reactions were performed in binding buffer (5 mM HEPES, 5.5 mM glucose, 117 mM NaCl and 5.4 mM KCl, pH 7.4). Cell membranes (50 μg in 20 μl) were added to each well. […] Binding reactions were incubated for 2 hours at 37° C. Samples were transferred to Unifilter-96 GF/C plates (Perkin Elmer, Wellesley Mass.) and filtered using a Brandel harvester (Gaithersburg Md.). […] Liquid scintillant (50 μl; Microscint-20, Perkin Elmer, Wellesley Mass.) was added and the bound radioactivity was measured using a microplate scintillation counter.

[3] = tested on: ^14C-cholesterol absorption; test: Acute cholesterol absorption assay; assay type: in vivo; conditions: rat, intraduodenal; read-out: rat ED50, inhibition of cholesterol absorption
Procedure: Acute cholesterol absorption assay. ^14C-cholesterol absorption was determined acutely in rats using conditions previously described (Van Heek et al., J. Pharmacol. Exp. Ther. 283: 157-163 (1997)). Compounds were dissolved in rat bile and delivered (1.0 ml) intraduodenally by bolus injection via an intestinal catheter, followed by 1.0 ml saline rinse (0.9%). Following a 30 min incubation, a cholesterol emulsion containing 3 mg cholesterol and 2 μCi ^14C-cholesterol (3 ml) was delivered to each rat as a bolus via intestinal catheter, followed by 1 ml saline rinse. Animals were sacrificed 90 min later and ^14C-cholesterol levels in plasma, liver, intestinal contents, and intestinal wall were determined.

[4] = tested on: plasma and liver cholesterol; test: Percent cholesterol lowering in plasma and liver; assay type: in vivo; conditions: hamster

Ki (monkey NPC1L1 [1]; Monkey NPC1L1, competition with compound 1, read-out: Ki): 92 nM
difference in affinity versus ezetimibe (compound 3) (monkey NPC1L1 [1]; monkey NPC1L1): ~10 fold
Ki (human NPC1L1): 660 nM
Ki (rabbit NPC1L1; Rabbit NPC1L1, competition with compound 1, read-out: Ki): 830 nM
Ki (rabbit NPC1L1; Table 3, Rabbit, read-out: Ki Rabbit NPC1L1): 830 nM
difference in affinity versus ezetimibe (compound 3) (rabbit NPC1L1; rabbit NPC1L1): less than 3 fold
Kd (monkey NPC1L1 [2]): 102 nM
Compound: O=C(O)[C@H]1O[C@@H](Oc2ccc([C@@H]3[C@@H](CC[C@H](O)c4ccc(F)cc4)C(=O)N3c3ccc(F)cc3)cc2)[C@H](O)[C@@H](O)[C@@H]1O [compound 4, glucuronidated ezetimibe]
ED50 [3]: 1.9 µg/kg
cholesterol lowering Liver ([4]; liver): 92%
cholesterol lowering Plasma ([4]; plasma): 48%
